Drawing on ChEMBL document CHEMBL1148209, “Isolation and structure determination of cryptophycins 38, 326, and 327 from the terrestrial cyanobacterium Nostoc sp. GSV 224” (J Nat Prod, 2004), this text covers IC50 for five compounds.

Molecules are shown by their SMILES.

This assay concerns KB. The experiment in a line: Cytotoxicity against human KB cells. In kind it is functional, cell-based.

Compound `COc1ccc(C[C@H]2NC(=O)/C=C/C[C@@H]([C@H](C)[C@@H]3O[C@H]3c3ccccc3)OC(=O)[C@H](CC(C)C)OC(=O)[C@H](C)CNC2=O)cc1Cl` [CRYPTOPHYCIN 38] showed an IC50 of 0.0547 µM.

`COc1ccc(C[C@H]2NC(=O)/C=C/C[C@@H]([C@H](C)[C@H]3O[C@H]3c3ccccc3)OC(=O)[C@H](CC(C)C)OC(=O)[C@H](C)CNC2=O)cc1Cl` [CRYPTOPHYCIN 39]: the IC50 was determined as 0.072 µM. In the case of `COc1ccc(C[C@H]2NC(=O)/C=C/C[C@@H]([C@H](C)[C@@H]3O[C@@H]3c3ccccc3)OC(=O)[C@H](CC(C)C)OC(=O)[C@H](C)CNC2=O)cc1Cl` [CRYPTOPHYCIN 77] it was 0.654 µM; in that of `COc1c(Cl)cc(C[C@H]2NC(=O)/C=C/C[C@@H]([C@H](C)[C@H]3O[C@@H]3c3ccccc3)OC(=O)[C@H](CC(C)C)OC(=O)CCNC2=O)cc1Cl` [CRYPTOPHYCIN 326], 1.16 µM. In the case of `COc1ccc(C[C@H]2NC(=O)/C=C\C[C@@H]([C@H](C)[C@H]3O[C@@H]3c3ccccc3)OC(=O)[C@H](CC(C)C)OC(=O)[C@H](C)CNC2=O)cc1Cl` [CRYPTOPHYCIN 327] it was 14.1 µM.

For orientation: IC50 means the concentration that gives 50% inhibition. A higher IC50 goes with a need for much substance.
